The target of one assay is T1, CDK4/CyclinD1 (Homo sapiens, UniProt P11802).
T1 construct: purchased Invitrogen
As to the kind of experiment: Lance Ultra KinaSelect Assay, CDK4. Type of assay: biochemical. The note with it: ATP 90 μM; read-out: CDK4 LANCE assay (activity range), IC50. Here is the method:
(§1) 2. Measurement of half maximal inhibitory concentration to CDKs This protocol describes how the Lance Ultra KinaSelect Assay was performed to determine half maximal inhibitory concentration (1050) of compounds of general formula (I) and CDK/Cyclin complexes. The principle behind this enzymatic assay is based upon the phosphorylation of the ULight-Peptide Substrat. It is detected by using a specific
(§2) EU-labeled anti-phospho peptide antibody. The binding of the Eu-labeled anti-phospho peptide antibody to the phosphorylated ULight labeled peptide gives rise to a FRET-signal. Binding of an inhibitor to the kinase prevents phosphorylation of the ULight-MBP Substrat, resulting in a loss of FRET.
(§3) The compounds of general formula (I) summarized in Table 5 were diluted from a 10 mM DMSO stock solution 1:10 in a total volume of 15 μL DMSO. This compound predilution was then serial diluted 1:3 over 8 steps in DMSO and briefly spun down. Each compound solution was now diluted 1:20 in Enzymatic Buffer (HEPES: 50 mM, pH: 7.5; MgCl2: 10 mM; EGTA: 1 mM; DTT: 2 mM; Tween-20: 0.01%), mixed thoroughly and spun down. For every sample, 2 μL of the diluted compound were mixed with 6 μL CDK/Cyclin/Substrat solution and 2 μL ATP solution in a well of a small volume 384 well plate (Corning Incorporated, Corning, N.Y., USA; order no. 3673). The CDK/Cyclin was diluted to the appropriate concentration (see Table 3) and the ATP concentration was adjusted to its […] for the CDK/Cyclin, which was 3 μM for CDK2/Cyclin A, 20 μM for CDK1/Cyclin B1, 25 μM for CDK7/Cyclin H and CDK9/Cyclin T1, 55 μM for CDK6/Cyclin D3, 90 μM for CDK4/Cyclin D1 and 125 μM for CDK9/Cyclin K. For negative controls, in each well 2 μL of DMSO solution (1% final DMSO assay concentration) was mixed with 6 μL substrate solution (50 nM ULight MBP final assay concentration) and 2 μL ATP solution (appropriate final concentration see Table 3). For positive controls, in each well 2 μL of DMSO solution (1% final DMSO assay concentration) was mixed with 6 μL CDK/Cyclin/Substrat (appropriate final concentration see Table 3) and 2 μL Tracer ATP solution (appropriate final concentration see Table 3). Positive and negative controls were calculated from at least 8 different sample wells. The 384 well plates were mixed in a Teleshaker plate mixer (Beckman Coulter, Brea, Calif., USA) at 2000 rpm for 40 sec, and incubated for 1 h at room temperature. Before reading, 10 μL the detection buffer (Lance Detection Buffer 1×; EDTA: […]; Eu-Anti-P-MBP: see Table 3) was added. The FRET signal was measured at 340 nm excitation, 665 nm and 615 nm emission (for the kinase tracer and LanthaScreen Eu-AB, respectively) with an Envision spectrophotometer (Perkin Elmer, Waltham, Mass., USA) with 50 μs delay and 300 μs integration time. IC50 values were determined from the sigmoidal dose response curves with the software Quattro Workflow (Quattro GmbH, Munich, Germany).

The next assay addresses T2, CDK1/CyclinB1 (Homo sapiens, UniProt P06493).
T2 construct: purchased Carna
The assay is described as follows: Lance Ultra KinaSelect Assay, CDK1. Type of assay: biochemical. The note with it: ATP 20 μM; read-out: CDK1 LANCE assay (activity range), IC50. Here is the method: as §1, §2, §3

The next assay concerns the target T3, CDK6/CyclinD3 (Homo sapiens, UniProt Q00534).
T3 construct: purchased Carna
The assay is described as follows: Lance Ultra KinaSelect Assay, CDK6. Type of assay: biochemical. To be noted: ATP 55 μM; read-out: CDK6 LANCE assay (activity range), IC50. Here is the method:
as §1, §2, §3

Assay [1] has as its target T4, CDK7/CyclinH/MAT1 (Homo sapiens, UniProt P50613).
T4 construct: His; purchased Carna Biosciences
The assay is described as follows: Lance Ultra KinaSelect Assay, CDK7. Type of assay: biochemical. To be noted: ATP 25 μM; read-out: CDK7 LANCE assay (activity range), IC50. The procedure:
as §1, §2, §3

In a further assay the target is T5, CDK9 (Homo sapiens, UniProt P50750).
T5 construct: purchased Invitrogen
T5 sequence (P50750 whole entry): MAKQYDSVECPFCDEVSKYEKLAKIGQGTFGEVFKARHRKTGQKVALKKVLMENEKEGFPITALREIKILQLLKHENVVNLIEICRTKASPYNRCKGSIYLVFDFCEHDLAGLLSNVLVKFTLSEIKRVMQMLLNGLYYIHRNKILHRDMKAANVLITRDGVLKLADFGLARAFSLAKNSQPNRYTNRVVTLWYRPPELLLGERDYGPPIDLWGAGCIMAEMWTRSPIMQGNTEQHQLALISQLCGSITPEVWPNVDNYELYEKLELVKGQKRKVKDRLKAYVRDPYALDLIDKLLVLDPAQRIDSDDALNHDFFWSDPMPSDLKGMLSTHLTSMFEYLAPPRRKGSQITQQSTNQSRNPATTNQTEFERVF
The assay is described as follows: Lance Ultra KinaSelect Assay, CDK9. It counts as biochemical. The note with it: cyclin partner (T1 or K) not stated; read-out: CDK9 LANCE assay (activity range), IC50. Here is the method:
as §1, §2, §3

The next assay has as its target T6, CDK9/Cyclin K (Homo sapiens, UniProt P50750).
T6 construct: His; purchased Invitrogen
As to the kind of experiment: LanthaScreen Eu Kinase Binding Assay, CDK9/Cyclin K. The note with it: tracer 236, read-out: CDK9/Cyclin K (activity range), Kd. Here is the method:
(§4) This protocol describes how the LanthaScreen Eu Kinase Binding Assay was performed to determine dissociation constants (Kd) of compounds of general formula (I) and CDK/Cyclin complexes. The principle behind this assay is based upon the binding and displacement of an Alexa Fluor 647-labeled tracer, which binds to the active site of kinases. Binding of the tracer to the kinase is detected using a Eu-labeled antibody. Simultaneous binding of both the tracer and antibody to the kinase gives rise to a FRET-signal. Binding of an inhibitor to the kinase competes for binding with the tracer, resulting in a loss of FRET.
(§5) The compounds of general formula (I) summarized in Table 1 were diluted from a 10 mM DMSO stock solution 1:10 in a total volume of 15 μL DMSO. This compound predilution was then serial diluted 1:3 over 8 steps in DMSO and briefly spun down. Each compound solution was now diluted 1:33.33 in kinase buffer (HEPES: 20 mM, pH: 8.0; MgCl2: 10 mM; DTT: 1 mM; Brij-35: 0,01%), mixed thoroughly and spun down. For every sample, 5 μL of the diluted compound were mixed with 5 μL tracer working solution (e.g. 60 nM tracer 236 in kinase buffer for CDK2/Cyclin A) and 5 μL CDK/Cyclin/Anti-GST-AB-working solution (e.g. 15 nM CDK2/Cyclin A, 1:250 dilution of Anti-GST-AB in kinase buffer) in a well of a small volume 384 well plate (Corning Incorporated, Corning, N.Y., USA; order no. 3673). The tracer concentration was adjusted to its dissociation constant (Kd) for the CDK/Cyclin, which was 30 nM for CDK2/Cyclin A, CDK7/Cyclin H and CDK9/Cyclin T1, 20 nM for CDK8/Cyclin C, and 35 nM for CDK9/Cyclin K. For negative controls, in each well 5 μL of DMSO working solution (3% DMSO diluted in kinase buffer) was mixed with 5 μL Anti-GST-AB working solution (e.g. 1:250 dilution of Anti-GST-AB in kinase buffer for CDK2/Cyclin A) and 5 μL Tracer working solution (e.g. 60 nM Tracer 236 in kinase buffer for CDK2/Cyclin A). For positive controls, in each well 5 μL of DMSO working solution (3% DMSO diluted in kinase buffer) was mixed with 5 μL CDK/Cyclin/Anti-GST-AB-working solution: (e.g. 15 nM CDK2/Cyclin A, 1:250 dilution of Anti-GST-AB in kinase buffer) and 5 μL Tracer working solution (e.g. 60 nM Tracer 236 in kinase buffer for CDK2/Cyclin A). Positive and negative controls were calculated from at least 8 different sample wells. The 384 well plates were mixed in a Teleshaker plate mixer (Beckman Coulter, Brea, Calif., USA) at 2000 rpm for 40 sec, and incubated for 1 h at room temperature before reading. The FRET signal was measured at 340 nm excitation, 665 nm and 615 nm emission (for the kinase tracer and LanthaScreen Eu-AB, respectively) with an Envision spectrophotometer (Perkin Elmer, Waltham, Mass., USA) with […]. Kd values were determined from the sigmoidal dose response curves with the software Quattro Workflow (Quattro GmbH, Munich, Germany).

In assay [2] the target is T7, CDK2/CyclinA (Homo sapiens, UniProt P24941).
T7 construct: GST; purchased Proqinase
As to the kind of experiment: Lance Ultra KinaSelect Assay, CDK2. Type of assay: biochemical. The note with it: ATP 3 μM; read-out: CDK2 LANCE assay (activity range), IC50. The procedure: as §1, §2, §3

Another assay concerns the target T8, CDK9/Cyclin T1 (Homo sapiens, UniProt P50750).
T8 construct: His; purchased Invitrogen
The assay is described as follows: LanthaScreen Eu Kinase Binding Assay, CDK9/Cyclin T1. The note with it: tracer 236, read-out: CDK9/Cyclin T1 (activity range), Kd. Here is the method:
as §4, §5

In assay [3] the target is T4, CDK7/CyclinH/MAT1. The assay is described as follows: LanthaScreen Eu Kinase Binding Assay, CDK7. To be noted: tracer 236, read-out: CDK7 (activity range), Kd. Here is the method:
as §4, §5

Assay [4] has as its system NF-kappaB reporter gene activation. As to the kind of experiment: NF-kappaB Reporter Assay. The note with it: Homo sapiens; HEK293 cells, pNFkBluc reporter, 20 ng/ml TNF alpha, 5 h; read-out: NF-kappaB activation (activity range), IC50. It counts as cell-based. The procedure:
3.2 NF-kappaB Reporter Assay
Cells were maintained in RPMI cell culture medium+glutamine (PAN Biotech GmbH, Aidenbach, Germany) supplemented with 10% fetal calf serum (PAA Laboratories GmbH, Pasching, Austria) and grown at 37° C., 5% CO2. HEK293 cells grown to 50% confluence were transfected with the Amaxa® Cell Line Nucleofector® Kit V (Lonza, Basel, Switzerland, catalog #VCA-1003). Transfections were performed according to manufacturer's optimized protocol for transfection of HEK293 cells. In brief, 2×10^5 cells were transfected with 5 μg highly purified plasmid DNA. Cells were transfected with a NF-kappa B reporter plasmid (pNFkBluc), pTALluc for control, or pMAXGFP for transfection control. After transfection, cells were taken up in 500 μL RPMI1640 cell culture medium, incubated for 1 h at 37° C., and 4.5 ml DMEM without phenol red were added per transfection. Transfected cells were seeded in 96 well plates (Greiner Bio-One, Frickenhausen, Germany, catalog #655098) with 100 μL cell suspension per well and incubated for 48 h. To each well, 100 μL DMEM with 2× concentrated compound diluted from 10 mM DMSO stocks, or 100 μL DMEM with 0.4% DMSO for control wells, was added. The compounds of general formula (I) summarized in Table 6 were used in this assay. Cells were stimulated with 20 ng/ml TNF alpha, and plates were incubated for 5 h at 37° C./5% CO2. Cell culture supernatants were removed to leave 100 μl medium per well, followed by addition of 100 μl Bright Glo luciferase assay reagent (Promega, Madison, Wis., USA, catalog #E2620), and shaking for 5 minutes in the dark. Luminescence was measured with a Victor Photospectrometer (Perkin Elmer, Waltham, Mass., USA). IC50 values were calculated with the software Excel Fit (IDBS, Guildford, UK) from 2-fold dilution series comprising at least 10 concentrations in duplicates.

The target of assay [5] is T7, CDK2/CyclinA. As to the kind of experiment: LanthaScreen Eu Kinase Binding Assay, CDK2. The note with it: tracer 236, read-out: CDK2 (activity range), Kd. The procedure: as §4, §5

Bounds are passed on as bounds.

T8 sequence (P50750 whole entry): as above
T8 sequence (O60563 whole entry partner): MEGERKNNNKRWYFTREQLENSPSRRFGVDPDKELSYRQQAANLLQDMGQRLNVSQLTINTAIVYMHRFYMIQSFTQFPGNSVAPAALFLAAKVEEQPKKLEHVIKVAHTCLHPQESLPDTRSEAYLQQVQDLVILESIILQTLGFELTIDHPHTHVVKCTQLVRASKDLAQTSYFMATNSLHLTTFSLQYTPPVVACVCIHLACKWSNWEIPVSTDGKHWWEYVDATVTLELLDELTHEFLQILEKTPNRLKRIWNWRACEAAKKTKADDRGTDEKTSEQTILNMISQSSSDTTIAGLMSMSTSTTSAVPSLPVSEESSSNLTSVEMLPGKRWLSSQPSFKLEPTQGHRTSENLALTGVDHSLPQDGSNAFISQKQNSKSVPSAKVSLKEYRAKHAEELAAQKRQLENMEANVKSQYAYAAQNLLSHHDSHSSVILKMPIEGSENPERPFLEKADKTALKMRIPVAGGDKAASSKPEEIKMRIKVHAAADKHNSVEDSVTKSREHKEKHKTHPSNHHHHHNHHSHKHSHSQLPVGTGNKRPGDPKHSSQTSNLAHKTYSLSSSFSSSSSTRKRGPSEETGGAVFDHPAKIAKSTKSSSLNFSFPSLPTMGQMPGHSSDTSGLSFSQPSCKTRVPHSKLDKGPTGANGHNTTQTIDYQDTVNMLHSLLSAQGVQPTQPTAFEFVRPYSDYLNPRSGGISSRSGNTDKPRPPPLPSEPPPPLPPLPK
T4 sequence (P50613 whole entry): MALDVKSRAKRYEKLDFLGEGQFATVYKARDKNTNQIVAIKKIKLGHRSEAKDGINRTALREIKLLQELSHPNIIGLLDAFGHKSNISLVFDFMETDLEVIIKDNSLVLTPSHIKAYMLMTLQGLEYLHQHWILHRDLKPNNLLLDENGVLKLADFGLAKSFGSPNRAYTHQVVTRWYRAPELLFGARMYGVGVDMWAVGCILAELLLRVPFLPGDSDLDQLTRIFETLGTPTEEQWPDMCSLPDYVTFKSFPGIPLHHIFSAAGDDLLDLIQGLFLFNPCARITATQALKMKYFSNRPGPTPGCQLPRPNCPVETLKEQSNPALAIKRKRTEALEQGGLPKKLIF
T4 sequence (P51946 whole entry partner): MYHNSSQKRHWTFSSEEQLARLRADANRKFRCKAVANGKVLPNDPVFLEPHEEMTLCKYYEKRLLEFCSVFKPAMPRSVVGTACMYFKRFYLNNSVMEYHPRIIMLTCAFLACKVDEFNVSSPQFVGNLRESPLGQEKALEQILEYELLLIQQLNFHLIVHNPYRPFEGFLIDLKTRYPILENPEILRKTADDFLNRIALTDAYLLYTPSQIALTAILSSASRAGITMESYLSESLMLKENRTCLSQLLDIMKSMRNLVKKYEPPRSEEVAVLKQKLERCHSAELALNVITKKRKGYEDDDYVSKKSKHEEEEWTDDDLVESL
T4 sequence (P51948 whole entry partner): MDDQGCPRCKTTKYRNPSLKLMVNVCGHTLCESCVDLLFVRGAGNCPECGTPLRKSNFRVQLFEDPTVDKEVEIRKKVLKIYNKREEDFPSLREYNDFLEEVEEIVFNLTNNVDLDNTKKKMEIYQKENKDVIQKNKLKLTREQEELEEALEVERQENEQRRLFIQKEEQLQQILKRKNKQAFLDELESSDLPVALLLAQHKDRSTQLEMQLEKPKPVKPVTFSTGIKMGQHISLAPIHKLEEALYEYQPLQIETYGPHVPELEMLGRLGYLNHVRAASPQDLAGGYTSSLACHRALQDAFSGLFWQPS
T6 sequence (P50750 whole entry): as the sequence (P50750 whole entry) above
T6 sequence (O75909 1-357 isoform O75909-1 partner): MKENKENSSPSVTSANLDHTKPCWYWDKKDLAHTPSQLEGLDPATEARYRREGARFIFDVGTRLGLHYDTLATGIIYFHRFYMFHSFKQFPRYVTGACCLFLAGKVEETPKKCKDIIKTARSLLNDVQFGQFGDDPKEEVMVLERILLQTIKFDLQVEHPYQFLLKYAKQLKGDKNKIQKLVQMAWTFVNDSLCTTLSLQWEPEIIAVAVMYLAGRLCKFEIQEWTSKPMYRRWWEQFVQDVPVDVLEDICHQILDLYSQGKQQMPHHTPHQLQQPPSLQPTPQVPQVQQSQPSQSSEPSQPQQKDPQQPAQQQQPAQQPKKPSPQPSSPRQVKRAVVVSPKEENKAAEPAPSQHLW
T1 sequence (P11802 whole entry): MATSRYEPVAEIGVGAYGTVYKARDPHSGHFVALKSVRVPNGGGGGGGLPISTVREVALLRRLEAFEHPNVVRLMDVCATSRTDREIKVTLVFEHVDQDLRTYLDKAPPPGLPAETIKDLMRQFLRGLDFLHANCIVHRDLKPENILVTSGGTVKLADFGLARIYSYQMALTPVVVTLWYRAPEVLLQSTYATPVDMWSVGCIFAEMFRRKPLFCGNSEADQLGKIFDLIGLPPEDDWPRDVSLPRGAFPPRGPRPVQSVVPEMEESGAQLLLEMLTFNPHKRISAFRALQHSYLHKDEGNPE
T1 sequence (P24385 whole entry partner): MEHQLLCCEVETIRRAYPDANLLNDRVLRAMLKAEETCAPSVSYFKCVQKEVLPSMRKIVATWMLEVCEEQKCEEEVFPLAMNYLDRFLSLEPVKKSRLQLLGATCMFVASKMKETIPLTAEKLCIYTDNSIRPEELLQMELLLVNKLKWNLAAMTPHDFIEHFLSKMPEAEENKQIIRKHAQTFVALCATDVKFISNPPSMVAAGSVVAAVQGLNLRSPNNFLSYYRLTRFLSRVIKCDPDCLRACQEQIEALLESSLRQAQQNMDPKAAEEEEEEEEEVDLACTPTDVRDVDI
T2 sequence (P06493 whole entry): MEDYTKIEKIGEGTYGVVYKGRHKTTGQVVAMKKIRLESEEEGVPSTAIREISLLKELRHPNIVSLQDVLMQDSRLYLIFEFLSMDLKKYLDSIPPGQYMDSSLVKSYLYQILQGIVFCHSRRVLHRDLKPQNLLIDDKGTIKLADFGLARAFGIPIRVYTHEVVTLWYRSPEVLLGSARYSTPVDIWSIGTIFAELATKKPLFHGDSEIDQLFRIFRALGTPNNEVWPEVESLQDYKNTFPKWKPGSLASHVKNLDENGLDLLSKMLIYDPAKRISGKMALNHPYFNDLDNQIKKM
T2 sequence (P14635 whole entry partner): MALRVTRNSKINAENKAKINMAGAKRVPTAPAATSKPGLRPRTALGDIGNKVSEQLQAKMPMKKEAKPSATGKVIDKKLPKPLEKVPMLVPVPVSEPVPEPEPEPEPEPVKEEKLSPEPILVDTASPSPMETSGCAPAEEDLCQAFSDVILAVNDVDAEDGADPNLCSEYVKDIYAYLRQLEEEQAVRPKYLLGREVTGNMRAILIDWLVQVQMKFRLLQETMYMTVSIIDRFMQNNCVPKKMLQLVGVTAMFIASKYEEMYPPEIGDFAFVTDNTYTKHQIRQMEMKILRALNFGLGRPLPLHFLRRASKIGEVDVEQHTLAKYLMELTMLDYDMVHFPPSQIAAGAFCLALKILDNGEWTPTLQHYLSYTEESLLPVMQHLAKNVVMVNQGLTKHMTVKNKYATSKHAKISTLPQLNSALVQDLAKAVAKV
T3 sequence (Q00534 whole entry): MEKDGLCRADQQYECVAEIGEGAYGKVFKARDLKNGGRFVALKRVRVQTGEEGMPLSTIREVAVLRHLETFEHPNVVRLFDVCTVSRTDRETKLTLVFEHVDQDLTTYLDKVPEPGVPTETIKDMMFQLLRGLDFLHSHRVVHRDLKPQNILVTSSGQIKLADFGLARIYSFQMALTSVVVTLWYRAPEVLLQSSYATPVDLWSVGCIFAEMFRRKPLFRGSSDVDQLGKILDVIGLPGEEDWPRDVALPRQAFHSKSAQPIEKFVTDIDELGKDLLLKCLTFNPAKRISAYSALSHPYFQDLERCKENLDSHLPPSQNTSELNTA
T3 sequence (P30281 whole entry partner): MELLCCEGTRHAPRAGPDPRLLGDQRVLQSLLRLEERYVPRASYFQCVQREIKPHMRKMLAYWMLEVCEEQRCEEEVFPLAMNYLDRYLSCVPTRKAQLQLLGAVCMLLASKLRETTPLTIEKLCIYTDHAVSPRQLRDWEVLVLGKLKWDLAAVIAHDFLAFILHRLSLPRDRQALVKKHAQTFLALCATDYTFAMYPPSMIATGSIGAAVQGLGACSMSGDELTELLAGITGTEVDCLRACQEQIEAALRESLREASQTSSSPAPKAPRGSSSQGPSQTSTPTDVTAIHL

With `CN(C)CCC1CCCCN1c1ncnc(Nc2cccc(CS(N)(=O)=O)c2)n1` (racemic) [Compound B8, rac-3-[(4-(2-(2-(Dimethylamino)ethyl)piperidin-1-yl)-1,3,5-triazin-2-yl)amino]benzenemethanesulfonamide], the concentration for half-maximal inhibition (IC50) was above 10 µM at CDK4/CyclinD1; above 10 µM on CDK1/CyclinB1; above 10 µM at CDK6/CyclinD3; above 10 µM at CDK7/CyclinH/MAT1 [1]; 1 to 10 µM at CDK9; above 10 µM on CDK2/CyclinA [2]. Moreover, the Kd at CDK9/Cyclin K and at CDK9/Cyclin T1 was 1 to 10 µM in each case.

For `NS(=O)(=O)Cc1cccc(Nc2ncnc(N3CCC[C@@H]3COCc3ccccc3)n2)c1` [Compound B30, (R)-3-[(4-(2-(Benzyloxymethyl)pyrrolidin-1-yl)-1,3,5-triazin-2-yl)amino]benzenemethanesulfonamide], the Kd was above 10 µM at CDK7/CyclinH/MAT1 [3], above 10 µM on CDK2/CyclinA [5], 0.1 to 1 µM at CDK9/Cyclin K and 0.1 to 1 µM at CDK9/Cyclin T1. For the same compound, in assay [4], the concentration for half-maximal inhibition (IC50) was above 10 µM.

For the compound `NS(=O)(=O)Cc1cccc(Nc2ncnc(N3CCC[C@@H]3C(F)(F)F)n2)c1` [Compound B54, (R)-3-[(4-(2-(Trifluoromethyl)pyrrolidin-1-yl)-1,3,5-triazin-2-yl)amino]-benzenemethanesulfonamide], the figures for the Kd at CDK7/CyclinH/MAT1 [3], at CDK2/CyclinA [5] and on CDK9/Cyclin T1 were above 10 µM, 1 to 10 µM and 0.1 to 1 µM, respectively. Further, the concentration for half-maximal inhibition (IC50) at CDK9 and at CDK2/CyclinA [2] was 1 to 10 µM each time.

For `C[C@H]1CCCN1c1ncnc(Nc2cccc(CS(N)(=O)=O)c2)n1` [Compound B53, (S)-3-[(4-(2-Methylpyrrolidin-1-yl)-1,3,5-triazin-2-yl)amino]-benzenemethanesulfonamide], the figures for the Kd on CDK7/CyclinH/MAT1 [3], at CDK2/CyclinA [5] and at CDK9/Cyclin T1 were above 10 µM, 1 to 10 µM and below 0.1 µM, respectively. Moreover, the IC50 at CDK9 lay in the range of 0.1 to 1 µM; at CDK2/CyclinA [2] it was 1 to 10 µM.

The values above are taken from patent publication US9226929B2, “Pharmaceutically active disubstituted triazine derivatives” (Bayer Intellectual Property GMBH, priority 2011, dated 2016).
